The values that follow come from US20250186448A1 (Mezzion Pharma Co., Ltd., priority 2021, published 2025).

Each structure is given as a SMILES string.

Data set [1] deals with adolescents with Fontan physiology. The data set can be described thus: FUEL trial: echocardiographic myocardial performance index (MPI), blood pool Doppler. The format is in vivo, human. From the text: Generally speaking, MPI (also referred to as the Doppler-derived index or Tei Index) is a measure of ventricular systolic and diastolic function as determined by a focused echocardiogram. It combines systolic and diastolic time intervals to assess heart function. More specifically, MPI can be used to assess ventricular performance represented by a numeric value using cardiac time intervals. This numeric value equals the sum of isovolumetric contraction time (ICT) and isovolumetric relaxation time (IRT) divided by ejection time (ET) and can be determined for either the left or right ventricle. Pellett, A. A., et al.: The Tei Index: Methodology and Disease. State Values. Echocardiography: A Jrnl. of CV Ultrasound & Allied Tech. 21(7):669-672 (2004); and Uluçay, A., Tatli E.: Myocardial performance index. Anadolu Kardiyol Derg. 8(2):143-8 (April, 2008), both of which are incorporated herein by reference in their entireties. In the FUEL Trial, the MPI measured the performance of the single functioning ventricle. Thus, the MPI results from the FUEL Trial were determined by velocities obtained from blood pool Doppler assessment of the inflow and outflow tract of the functioning single ventricle. In other words, the FUEL Trial MPI was determined by measuring the cardiac time intervals using pulsed-wave Doppler velocity spectra of the ventricular inflow and outflow of the single functioning ventricle.
Echocardiograms were performed by sonographers with specific training for this protocol. The primary outcome of interest was MPI using Doppler-based measures of inflow and outflow duration. The duration of inflow into the dominant ventricle and outflow across the dominant semilunar valve were measured and used to calculate MPI using the standard formula. Tei C, Ling L H, Hodge D O, et al.: New index of combined systolic and diastolic myocardial performance: a simple and reproducible measure of cardiac function—a study in normal and dilated cardiomyopathy. J Cardiol, 26(6):357-66 (1995); and Pellet A A et al.: The Tei Index: Methodology and Disease State Values. Echocardiography: A Jrnl Of CV Ultrasound & Allied Tech, 21(7):669-672 (2004). Additional tissue Doppler images were obtained and used to calculate the tissue Doppler based MPI as previously described. Harada K, Tamura M, Toyono M et al.: Comparison of the right ventricular Tei index by tissue Doppler imaging to that obtained by pulsed Doppler in children without heart disease. Am J Cardiol, 90(5):566-9 (2002). Whenever possible, three measurements were made and the mean duration was used for the calculation.
The primary outcome was the change in oxygen consumption at peak exercise (max or peak VO2) from baseline to the 26-week visit. Secondary exercise outcomes included change in additional measures at maximal exertion, as well as change in measures of submaximal exercise at the ventilatory anaerobic threshold (VAT). […] Safety was monitored through adverse event reports, which were collected according to a pre-specified protocol of study coordinator outreach, and through ad hoc patient and family communication with members of the study team at each site.
Each subject underwent an echocardiogram at the start and finish of the 26 weeks. […] The change in the MPI was determined by velocities obtained from blood pool Doppler assessment of the inflow and outflow tract of the single functioning dominant ventricle. […]

Data set [2] shares this test system. Particulars: phase I/II study, cited from earlier work.

Regarding `CCCOc1ccc(S(=O)(=O)NCCC2CCCN2C)cc1-c1nc2c(CCC)nn(C)c2c(=O)[nH]1` (centres unmarked) [Udenafil, udenafil], the “MPI difference, Week 26 - Baseline, mean” value in data set [1] (87.5 mg twice daily, paired data, decrease shows improvement, p 0.028 vs placebo) was 122: −0.02. Further, the “MPI, LS Mean Dif A − B (udenafil − placebo)” value in data set [1] (Baseline, p 0.818) was −0.0; in data set [1] (Week 26, p 0.024), −0.04. The “MPI, LS Mean Dif A − B (udenafil − placebo) of difference Week 26 - Baseline” value in data set [1] (p 0.028) is −0.03. Also, the “MPI, udenafil treated group compared to placebo” value in data set [1] (p=0.028) is “statistically significant improvement”. For the same compound, the Tolerability entry in data set [2] (adolescents with Fontan physiology, all tested dosing regimens) was “demonstrated tolerability at all tested dosing regimens”. For the same compound, in data set [2] (87.5 mg twice daily), the “Average serum concentration, compared among dosing regimens” value is “highest average serum concentration”. Also, the “Dose limiting adverse events” value in data set [2] (87.5 mg twice daily) is given as “not associated with dose limiting adverse events”.
